SMILES strings stand for the structures.

One may read the inhibition as the percentage by which the read-out fell short of the control. Read a high inhibition as a strong effect.

In the experiment the test system is Hyperpigmented melanocytes derived from normal neonatal prepuce. The experiment in a line: Effect on melanin synthesis in cultured hyperpigmented melanocytes (melanin content read at 490 nm). The format is cell-based. As for the experimental part: 3 solutions of methyl ester of triacetyl leucodopachrome were prepared, respectively at concentrations of 0.0025%, 0.00025% and 0.000025% by weight in DMSO.
The effect of the methyl ester of (S)-triacetyl leucodopachrome on melanin synthesis was evaluated according to the following procedure.
Hyperpigmented melanocytes derived from normal neonatal prepuce of separate donors were bought from the company Cascade Biologics (Portland, Oreg., United States). The cells were seeded in 6-well plates and cultured in a growth medium of the melanocytes (medium topped up with bovine pituitary extract, fetal bovine serum, bovine insulin, transferrin, conventional fibroblast growth factor, hydrocortisone, heparin and phorbol 12-myristate 13-acetate).
In a second stage, the cells were incubated with a growth medium (MGM, Clonetics) containing the active products, in three copies, for 5 days. The medium was withdrawn and the cells washed with PBS (Gibco/Invitrogen). The cells were lyzed and the melanin solubilized in NaOH.
The supernatant was centrifuged. After centrifugation, the clear lysate was transferred to a new plate and the melanin content was measured on an ELISA reader at 490 nm. The pellets were visualized on an Alphalnnotech imager.

For the compound `COC(=O)[C@@H]1Cc2cc(OC(C)=O)c(OC(C)=O)cc2N1C(C)=O` [methyl ester of (S)-triacetyl leucodopachrome], the “inhibition of the melanin synthesis (in words)” value (0.000025% to 0.0025% solutions) was “increases with the concentration”. Besides, the inhibition at 2.5e-05 % strength (Melanocyte, 120 h, 0.000025% by weight solution in DMSO, 5 days incubation, melanin at 490 nm) amounted to 5.49%. The inhibition at 0.00025 % strength (Melanocyte, 120 h, 0.00025% by weight solution in DMSO, 5 days incubation, melanin at 490 nm) is 6.7%. Under “Melanocyte, 120 h, 0.0025% by weight solution in DMSO, 5 days incubation, melanin at 490 nm”, this compound came in with an inhibition at 0.0025 % strength of 32.8%.

(Values after patent US8703107B2, “Cosmetic composition including leucodopachrome derivative” (Chanel Parfums Beaute, priority 2009, dated 2014).)
